System: doubly labelled quadruplex F21T (F-21-T, FAM-d[GGGTTAGGGTTAGGGTTAGGG]-TAMRA)
Assay: FRET-melting assay with F21T quadruplex
Format: binding
Conditions: F21T 0.2 μM, Caco.K buffer, 5 molar equivalents of TASQ; means of 3 experiments
Method: The lyophilized DNA strands (purchased from Eurogentec, Seraing, Belgium) were firstly diluted at 500 μM in deionized water (18.2 MΩ·cm resistivity). The DNA batch was prepared in a Caco.K buffer, comprised of 10 mM lithium cacodylate buffer (pH 7.2) plus 10 mM KCl/90 mM LiCl.
The quadruplex structure was prepared by mixing 40 μL of the constitutive strand (500 μM) with 8 μL of a lithium cacodylate buffer solution (100 mM, pH 7.2), plus 8 μL of a KCl/LiCl solution (100 mM/900 mM) and 24 μL of water. The final DNA concentration was theoretically 250 μM. The actual concentration of the DNA was determined through a dilution to 1 μM theoretical concentration through UV spectral analysis at 260 nm (after 5 min at 90° C.) with the following molar extinction coefficient values: 268300 M^−1·cm^−1 (F21 T). The higher-order DNA structure was folded as follows: solutions were heated (90° C., 5 min), cooled on ice (7 h) and then stored at least overnight (4° C.). […] Final data were analyzed with Excel (Microsoft Corp.) and OriginPro® 9.1 (OriginLab Corp.). […]
The apparent affinity of each G4-ligands is quantified via fluorescence resonance energy transfer (FRET)-melting experiments. […]

Row | Compound | Thermal stabilization ΔT1/2
1 | NCCN(CC(=O)NCCNC(=O)CN1CCN(CC(=O)NCCNC(=O)CN(CCN)C(=O)Cn2cnc3c(=O)[nH]c(N)nc32)CCN(CC(=O)NCCNC(=O)CN(CCN)C(=O)Cn2cnc3c(=O)[nH]c(N)nc32)C(CNC(=O)CCCC[C@H]2SCC3NC(=O)NC32)CN(CC(=O)NCCNC(=O)CN(CCN)C(=O)Cn2cnc3c(=O)[nH]c(N)nc32)CC1)C(=O)Cn1cnc2c(=O)[nH]c(N)nc21 (some centres unmarked) [BioTASQ] | 2.2 °C
2 | NCCN(CC(=O)NCCNC(=O)CN1CCN(CC(=O)NCCNC(=O)CN(CCN)C(=O)Cn2cnc3c(=O)[nH]c(N)nc32)CCN(CC(=O)NCCNC(=O)CN(CCN)C(=O)Cn2cnc3c(=O)[nH]c(N)nc32)CCN(CC(=O)NCCNC(=O)CN(CCN)C(=O)Cn2cnc3c(=O)[nH]c(N)nc32)CC1)C(=O)Cn1cnc2c(=O)[nH]c(N)nc21 [^PNADOTASQ] | 9.1 °C
